We go through two compounds from paper PMC4076284, “A Characteristic Back Support Structure in the Bisphenol A-Binding Pocket in the Human Nuclear Receptor ERRγ” (PLoS ONE, 2014).

In test [1] the target is Leu345Val-ERRγ mutant receptor (GST-fused LBD) (Homo sapiens, UniProt P62508, L345V). The test is described as follows: biochemical.
Experimental: (§1) Wild-type and mutant ERRγ-LBD proteins were expressed as glutathione S-transferase (GST)-fused preparations in E. coli BL21 as described previously [1], [24], [25]. […] After loading the protein solution, the column was incubated for 1 h at 4°C, and then washed three times with PBS containing 0.5% (v/v) Triton X-100 and once with sonication buffer (50 mM Tris-HCl (pH 8.0), 50 mM NaCl, 1 mM EDTA, and 1 mM dithiothreitol). […] The protein concentrations were determined by the Bradford method [26].
(§2) Competitive binding assays were performed in the presence of GST-fused wild-type ERRγ-LBD or its mutants at the most appropriate concentration of each receptor. […] Radioactivity was determined on a liquid scintillation counter TopCount NXT (PerkinElmer Life Sciences Japan Co., Ltd., Tokyo, Japan). To estimate the binding affinity, the IC50 values (the concentrations for the half-maximal inhibition) were calculated from the dose-response curves evaluated by the nonlinear analysis program ALLFIT [30]. Each assay was performed at least three times.
Test [2] has as its target T1, Tyr330Ala-ERRγ mutant receptor (GST-fused LBD) (Homo sapiens, UniProt P62508, Y330A).
T1 construct: wild-type ERRγ-LBD encoding 222-458 residues was generated by PCR; made in house; host or cells: E. coli BL21
The test is described as follows: Competitive binding assay using [^3H]BPA.
Experimental: as §1, §2

For test [3], the target named is T2, Lys430Ala-ERRγ mutant receptor (GST-fused LBD) (Homo sapiens, UniProt P62508, K430A). The test is described as follows: biochemical.
T2 sequence (P62508 222-458 K430A): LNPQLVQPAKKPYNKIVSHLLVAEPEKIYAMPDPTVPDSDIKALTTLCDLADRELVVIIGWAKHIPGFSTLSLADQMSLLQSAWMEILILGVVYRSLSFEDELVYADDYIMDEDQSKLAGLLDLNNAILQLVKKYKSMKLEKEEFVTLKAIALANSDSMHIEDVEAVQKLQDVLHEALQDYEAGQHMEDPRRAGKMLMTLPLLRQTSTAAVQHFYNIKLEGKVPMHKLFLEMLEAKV
Experimental: as §1, §2
The target in test [4] is T3, Asn346Gly-ERRγ mutant receptor (GST-fused LBD) (Homo sapiens, UniProt P62508, N346G).
T3 construct: wild-type ERRγ-LBD encoding 222-458 residues; made in house; host or cells: E. coli BL21
T3 sequence (P62508 222-458 N346G): as the sequence (P62508 222-458 K430A) above, with N125G, A209K counted along it
In words: Competitive binding assay using [^3H]BPA.
Experimental: as §1, §2

For test [5], the target named is Leu345Ala-ERRγ mutant receptor (GST-fused LBD) (Homo sapiens, UniProt P62508, L345A). The test is described as follows: biochemical.
Sequence of Leu345Ala-ERRγ mutant receptor (GST-fused LBD) (P62508 222-458 L345A limits assumed): as the sequence (P62508 222-458 K430A) above, with L124A, A209K counted along it
Experimental: as §1, §2
In test [6] the target is T4, Val313Leu-ERRγ mutant receptor (GST-fused LBD) (Homo sapiens, UniProt P62508, V313L).
T4 construct: wild-type ERRγ-LBD encoding 222-458 residues was generated by PCR; made in house; host or cells: E. coli BL21
T4 sequence (P62508 222-458 V313L limits assumed): as the sequence (P62508 222-458 K430A) above, with V92L, A209K counted along it
The following applies: BPA value re-collected from the previous report, read-out: Receptor binding potency IC50; cited from earlier work.

In test [7] the target is Ile349Val-ERRγ mutant receptor (GST-fused LBD) (Homo sapiens, UniProt P62508, I349V). In words: biochemical.
Sequence of Ile349Val-ERRγ mutant receptor (GST-fused LBD) (P62508 222-458 I349V limits assumed): as the sequence (P62508 222-458 K430A) above, with I128V, A209K counted along it
Experimental: as §2
Test [8] addresses T5, Tyr330Phe-ERRγ mutant receptor (GST-fused LBD) (Homo sapiens, UniProt P62508, Y330F).
T5 construct: wild-type ERRγ-LBD encoding 222-458 residues was generated by PCR; made in house; host or cells: E. coli BL21
The test is described as follows: Competitive binding assay using [^3H]BPA.
Experimental: as §1, §2

In test [9] the target is Asn346Ala-ERRγ mutant receptor (GST-fused LBD) (Homo sapiens, UniProt P62508, N346A). The test is described as follows: biochemical.
Sequence of Asn346Ala-ERRγ mutant receptor (GST-fused LBD) (P62508 222-458 N346A): as the sequence (P62508 222-458 K430A) above, with N125A, A209K counted along it
Experimental: as §1, §2
In test [10] the target is T6, Ile310Ala-ERRγ mutant receptor (GST-fused LBD) (Homo sapiens, UniProt P62508, I310A).
T6 construct: wild-type ERRγ-LBD encoding 222-458 residues was generated by PCR; made in house; host or cells: E. coli BL21
T6 sequence (P62508 222-458 I310A limits assumed): as the sequence (P62508 222-458 K430A) above, with I89A, A209K counted along it
The following applies: BPA value re-collected from the previous report, read-out: Receptor binding potency IC50; cited from earlier work.

Test [11] deals with GST-fused wild-type ERRγ-LBD (Homo sapiens, UniProt P62508). In words: biochemical. The following applies: [^3H]BPA 5 nM, 4°C, 2 h.
Sequence of GST-fused wild-type ERRγ-LBD (P62508 222-458): as the sequence (P62508 222-458 K430A) above, with A209K counted along it
Experimental: as §1, §2
Test [12] deals with T7, Val313Ala-ERRγ mutant receptor (GST-fused LBD) (Homo sapiens, UniProt P62508, V313A).
T7 construct: wild-type ERRγ-LBD encoding 222-458 residues was generated by PCR; made in house; host or cells: E. coli BL21
T7 sequence (P62508 222-458 V313A): as the sequence (P62508 222-458 K430A) above, with V92A, A209K counted along it
The following applies: BPA value re-collected from the previous report, read-out: Receptor binding potency IC50; cited from earlier work.

The target in test [13] is T8, Asn346Tyr-ERRγ mutant receptor (GST-fused LBD) (Homo sapiens, UniProt P62508, N346Y).
T8 construct: wild-type ERRγ-LBD encoding 222-458 residues; made in house; host or cells: E. coli BL21
T8 sequence (P62508 222-458 N346Y): as the sequence (P62508 222-458 K430A) above, with N125Y, A209K counted along it
In words: Competitive binding assay using [^3H]BPA.
Experimental: as §1, §2

In test [14] the target is Ile349Ala-ERRγ mutant receptor (GST-fused LBD) (Homo sapiens, UniProt P62508, I349A). In words: biochemical.
Sequence of Ile349Ala-ERRγ mutant receptor (GST-fused LBD) (P62508 222-458 I349A limits assumed): as the sequence (P62508 222-458 K430A) above, with I128A, A209K counted along it
Experimental: as §2
Test [15] addresses Leu342Ile-ERRγ mutant receptor (GST-fused LBD) (Homo sapiens, UniProt P62508, L342I). In words: biochemical.
Experimental: as §1, §2
Test [16] deals with ERRγ mutant receptors. The test is described as follows: [^3H]BPA saturation and/or competitive binding: ranges stated over several ERRγ mutants or both assays. Also on record: species or system human. As to conditions: for Activity decrements vs wild-type: competitive binding (Table 2). The protocol:
The reaction mixture was incubated at 4°C for 2 h with the receptor proteins—GST-fused wild-type ERRγ-LBD or its mutants—in 100 µl of binding buffer [10 mM HEPES (pH 7.5), 50 mM NaCl, 2 mM MgCl2, 1 mM EDTA, 2 mM CHAPS, and 2 mg/ml γ-globulin]. The assay was performed with or without the addition of unlabelled BPA (final concentration of 1.0×10^-5 M) to quantify the specific and nonspecific binding. After incubation with 100 µl of 1% dextran-coated charcoal (DCC) (Sigma-Aldrich) in PBS (pH 7.4) for 10 min at 4°C, the DCC-absorbed free radio-ligand was removed by the direct vacuum filtration method using a 96-well filtration plate (MultiScreen^HTS HV, 0.45 µm pore size; Millipore, Billerica, MA, USA) for the bound/free separation. Radioactivity was determined on a liquid scintillation counter (LS6500; Beckman Coulter, Fullerton, CA, USA).
The saturation binding assay was performed at least three times.
Each assay was performed at least three times.

Test [17] concerns the target Ile349Leu-ERRγ mutant receptor (GST-fused LBD) (Homo sapiens, UniProt P62508, I349L). The test is described as follows: biochemical.
Experimental: as §2
Test [18] addresses T9, His434Phe-ERRγ mutant receptor (GST-fused LBD) (Homo sapiens, UniProt P62508, H434F). In words: biochemical.
Experimental: as §1, §2
Test [19] concerns the target T7, Val313Ala-ERRγ mutant receptor (GST-fused LBD). In words: Competitive binding assay using [^3H]BPA. As to conditions: competitive binding (Table 3, BPA value from ref 24).
Experimental: as §1, §2
Test [20] concerns the target Asn346Gln-ERRγ mutant receptor (GST-fused LBD) (Homo sapiens, UniProt P62508, N346Q). The test is described as follows: biochemical.
Experimental: as §1, §2
The target in test [21] is T10, Leu345Ile-ERRγ mutant receptor (GST-fused LBD) (Homo sapiens, UniProt P62508, L345I).
T10 construct: wild-type ERRγ-LBD encoding 222-458 residues; made in house; host or cells: E. coli BL21
T10 sequence (P62508 222-458 L345I limits assumed): as the sequence (P62508 222-458 K430A) above, with L124I, A209K counted along it
The test is described as follows: Competitive binding assay using [^3H]BPA.
Experimental: as §1, §2

Test [22] has as its target Leu342Val-ERRγ mutant receptor (GST-fused LBD) (Homo sapiens, UniProt P62508, L342V). In words: biochemical.
Experimental: as §1, §2
Test [23] concerns the target T9, His434Phe-ERRγ mutant receptor (GST-fused LBD). The following applies: heterogeneous competitive binding.
Experimental: as §1, §2
The target of test [24] is T2, Lys430Ala-ERRγ mutant receptor (GST-fused LBD). The following applies: heterogeneous binding assay using [^3H]BPA.
Experimental: as §1, §2
Where [25] appears, read: read-out: Receptor binding potency IC50.

T5 sequence (P62508 222-458 Y330F): as the sequence (P62508 222-458 K430A) above, with Y109F, A209K counted along it
T9 sequence (P62508 222-458 H434F): as the sequence (P62508 222-458 K430A) above, with A209K, H213F counted along it
T1 sequence (P62508 222-458 Y330A): as the sequence (P62508 222-458 K430A) above, with Y109A, A209K counted along it
Sequence of Asn346Gln-ERRγ mutant receptor (GST-fused LBD) (P62508 222-458 N346Q): as the sequence (P62508 222-458 K430A) above, with N125Q, A209K counted along it
Sequence of Leu342Ile-ERRγ mutant receptor (GST-fused LBD) (P62508 222-458 L342I limits assumed): as the sequence (P62508 222-458 K430A) above, with L121I, A209K counted along it
Sequence of Leu342Val-ERRγ mutant receptor (GST-fused LBD) (P62508 222-458 L342V limits assumed): as the sequence (P62508 222-458 K430A) above, with L121V, A209K counted along it
Sequence of Leu345Val-ERRγ mutant receptor (GST-fused LBD) (P62508 222-458 L345V limits assumed): as the sequence (P62508 222-458 K430A) above, with L124V, A209K counted along it
Sequence of Ile349Leu-ERRγ mutant receptor (GST-fused LBD) (P62508 222-458 I349L): as the sequence (P62508 222-458 K430A) above, with I128L, A209K counted along it

In the case of `CC(C)(c1ccc(O)cc1)c1ccc(O)cc1` [BPA, bisphenol A], the IC50 (as a rule, the midpoint of a concentration-inhibition curve) in [1] is 154 ± 17.5 nM; in [2] (setting [25]), 361 ± 39.3 nM; in [3], 9.7 ± 0.37 nM; in test [4] (setting [25]), 42.4 ± 5.44 nM; in [5], 60.6 ± 11.2 nM; in [6], 16 ± 1.41 nM. For the same compound, the IC50 was 11.7 ± 1.5 nM in [7]; 16.1 ± 0.58 nM in [8] (setting [25]); 20.1 ± 3.41 nM in test [9]; 21.9 ± 0.99 nM in test [10]; 4.96 ± 0.71 nM in [11] (Receptor binding potency IC50, wild-type ERRγ (Table 2)); 5.64 ± 0.17 nM in test [11] (Receptor binding potency IC50, wild-type ERRγ (Table 3, back support series)). In addition, the IC50 in test [12] was 26.8 ± 2.12 nM; in [13] (setting [25]), 45.2 ± 8.91 nM; in test [14] it was 20.1 ± 3.24 nM; in test [15], 24.5 ± 4.53 nM; in test [17], 10.4 ± 0.64 nM; in [18] it was 13.7 ± 0.66 nM. Also, the figures for the IC50 in test [20], in test [21] (setting [25]) and in test [22] were 56.1 ± 7.42 nM, 158 ± 19.8 nM and 34.7 ± 5.38 nM, respectively. The “Reduction in IC50 value vs wild-type” value in test [2] (Tyr330Ala mutant, homologous competitive binding) was “more than 60 fold”; in test [8] (Tyr330Phe mutant, homologous competitive binding), “approximately 3 fold”; in test [16] (Leu342Val and Leu342Ile mutants, homologous competitive binding (Table 2)), 5–7 fold. Besides, the “Binding affinity relative to the wild-type ERRγ (IC50)” value in test [4] (Asn346Gly mutant, homologous competitive binding) is on record as “ca. 12%”. Further, the “Reduction in binding affinity vs wild-type” value in [13] (Asn346Tyr mutant, competitive binding) is recorded as “approximately 9 fold”. Moreover, the “Reduced binding affinity vs wild-type” value in test [16] (Asn346Ala mutant, saturation and competitive binding (Tables 1 and 2)) is 2–4 times. Further, in [16] (Asn346Gln mutant, saturation and competitive binding (Tables 1 and 2)), the “Reduction in the affinity vs wild-type” value is 3-10 fold. Besides, the “Activity decrements vs wild-type” value is on record as 4.0–11.3 times in test [16] (Asn346 mutant receptors (Ala, Gly, Gln, Tyr)); 110-135% in test [16] (Ile349Val and Ile349Leu mutants). For the same compound, the “Reduction in affinity vs wild-type” value in test [16] (Ile349Ala mutant, saturation and competitive binding (Tables 1 and 2)) was 3-4 fold. Also, the “Reduction in the binding affinity vs wild-type” value in [16] (Leu342Val and Leu342Ile mutants, saturation binding (Table 1)) was 3–4 fold. For the same compound, the “Reduction in binding affinities vs wild-type” value in [19] is recorded as “approximately 5 fold”. For the same compound, in test [21] (Leu345Ile mutant, homologous competitive binding), the “Decrease in binding vs wild-type” value is reported as “approximately 30 fold”.

For the compound `CC/C(=C(\c1ccc(O)cc1)c1ccc(OCCN(C)C)cc1)c1ccccc1` [4-OHT, 4-hydroxytamoxifen], the “Reduction in receptor-binding potency vs wild-type” value in [23] is reported as “more than 40 fold”. Further, the “Reinforced binding potency vs wild-type” value in test [24] is listed as “about 40%”.
